# From publication PMC9889419 (Pharmacological Reports, 2022)
# Entries after “also recorded” stand apart in the source; their conditions may differ. Counter-ions that a name gives are not always drawn.
# Columns and labels:
# mice [1] = assay: iv pentylenetetrazole (PTZ) seizure threshold test; conditions: compound ip
# Experimental: They were also evaluated in the iv pentylenetetrazole (PTZ) test.
# Data are expressed as the mean PTZ dose ± SEM for n = 10 that induced clonus or twitch in mice exposed to a particular dose of the test compound
# Na+ channel (site 2) = assay: Radioligand binding; parameters: species or system rat
# [2] = test system: organotypic hippocampal slice cultures; assay: Neuroprotection primary screen, excitotoxin kainic acid; format: cell-based; conditions: kainic acid 20 µM, 10 and 100 µM compound
# Experimental: Compound 2 : ADD t{umber, b890s0 Batch: lB- Date Compteted. Ect\,t""201 0 […]
# Excilotoxin: llGinic ncia Insult Duration: l+ Hours Solvent: […]
# Ai lxn zopr.,r aZ lxa zopr,r Ae lre zoprta
# Bz lr<n zopn er ]ra zopr',t l:+aot a r ooprt/|*aa9o8o l oopM lgaeota t oot,tr,t*gB9o8o t oopM […]
# The "Primary screen Experiment" is a qualitative assessment of the ability of a compound to prevent excitotoxic cell dearh. organotypic hippocampal slice clltures are treated with N-methyl-D-aipartate lNuoa; o; kainic acid (KA) to induce neuronal cell death. Propidium iodide (Pl), a membrane-impermeant compound, is included in all welts of the culture plate.
# Dying cells have compromised cell membranes, thus Pl may diffuse into the cell, intercalate with DNA and ftuoresce. Thus, the intensity of the Pl fluorescence is proportional to the amount of cell death in the individual slices. Hippocampal slice cultures are treated with the excitotoxin alone, or where indicated above, with the excitotoxin and either one eltu/o investigational compounds at the concentrations indicated. lf neuroprotection occurs as a consequence of the added […]
# been treated with the excitotoxin alone.
# (1 picture or pasted object on this page, not shown here)
# mice [3] = assay: Formalin test (ETSP, area under the curve); format: in vivo; conditions: ip
# M4 = molecular target: T1, M4 (Homo sapiens, UniProt P08173); assay: Radioligand binding
# T1 sequence (P08173 1-479): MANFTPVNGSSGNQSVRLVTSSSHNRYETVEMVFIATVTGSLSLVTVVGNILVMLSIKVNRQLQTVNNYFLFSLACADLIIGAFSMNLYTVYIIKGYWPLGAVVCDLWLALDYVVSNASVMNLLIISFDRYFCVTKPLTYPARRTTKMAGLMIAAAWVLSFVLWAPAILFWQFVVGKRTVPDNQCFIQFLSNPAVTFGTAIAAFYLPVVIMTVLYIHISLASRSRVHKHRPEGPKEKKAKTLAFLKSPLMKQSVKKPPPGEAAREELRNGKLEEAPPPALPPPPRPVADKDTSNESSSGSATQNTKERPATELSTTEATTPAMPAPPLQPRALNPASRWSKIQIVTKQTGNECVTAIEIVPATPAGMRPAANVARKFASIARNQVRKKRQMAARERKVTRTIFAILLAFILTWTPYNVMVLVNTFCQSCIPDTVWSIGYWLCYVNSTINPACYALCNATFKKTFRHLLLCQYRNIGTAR
# Experimental: (§1) Radioligand binding. Radioligand binding assays were performed at Eurofins CEREP (France). The results are expressed as a percent of control specific binding (measured specific binding*100/control specific binding) and as a percent inhibition of control specific binding (100-(measured specific binding*100)/control specific binding) obtained in the presence of the test compounds. The IC50 values (concentration causing a half-maximal inhibition of control specific binding) and Hill coefficients (nH) were determined by non-linear regression analysis of the competition curves generated with mean replicate values using Hill equation curve fitting (Y = D + [A-D]/[1 + (C/C50)^nH], where Y = specific binding, A = left asymptote of the curve, D = right asymptote of the curve, C = compound concentration, C50 = IC50, and nH = slope factor). This analysis was performed using software developed at Cerep (Hill software) and validated by comparison with data generated by the commercial software SigmaPlot® 4.0 for Windows® (© 1997 by SPSS Inc.). The inhibition constants (Ki) were calculated using the Cheng Prusoff equation (Ki = IC50/[1 + L/KD], where L = concentration of radioligand in the assay, and KD = affinity of the radioligand for the receptor). A scatchard plot is used to determine the Kd.
# 5-HT2C = molecular target: T2, 5-HT2C (Homo sapiens, UniProt P28335); assay: Radioligand binding
# T2 sequence (P28335 33-458): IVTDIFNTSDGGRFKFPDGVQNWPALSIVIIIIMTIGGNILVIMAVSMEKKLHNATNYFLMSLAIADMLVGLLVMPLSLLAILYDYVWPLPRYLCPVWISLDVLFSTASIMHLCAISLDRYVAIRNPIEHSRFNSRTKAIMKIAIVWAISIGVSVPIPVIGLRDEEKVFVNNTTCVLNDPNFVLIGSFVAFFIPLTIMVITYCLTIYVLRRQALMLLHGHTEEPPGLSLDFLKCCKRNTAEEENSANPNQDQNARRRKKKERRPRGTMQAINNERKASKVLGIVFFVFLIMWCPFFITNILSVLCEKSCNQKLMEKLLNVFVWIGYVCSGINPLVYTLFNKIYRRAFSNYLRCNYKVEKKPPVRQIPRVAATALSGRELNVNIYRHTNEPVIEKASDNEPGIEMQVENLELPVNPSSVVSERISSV
# Experimental: as §1
# D2S = D2S (Homo sapiens, UniProt P14416); assay: Radioligand binding
# D2S, sequence (P14416 1-414 isoform P14416-2): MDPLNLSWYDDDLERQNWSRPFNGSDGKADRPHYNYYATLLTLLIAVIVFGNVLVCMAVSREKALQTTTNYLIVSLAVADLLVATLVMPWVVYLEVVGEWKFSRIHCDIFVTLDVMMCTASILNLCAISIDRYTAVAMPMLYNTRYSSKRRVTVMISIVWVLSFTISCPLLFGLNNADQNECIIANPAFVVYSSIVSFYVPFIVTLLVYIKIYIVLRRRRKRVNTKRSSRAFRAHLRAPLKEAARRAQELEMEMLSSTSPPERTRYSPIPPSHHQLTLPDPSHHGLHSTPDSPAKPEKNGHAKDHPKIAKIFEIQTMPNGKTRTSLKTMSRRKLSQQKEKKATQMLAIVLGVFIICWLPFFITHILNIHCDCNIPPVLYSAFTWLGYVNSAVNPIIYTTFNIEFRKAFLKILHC
# Experimental: as §1
# 5-HT transporter = 5-HT transporter (Homo sapiens, UniProt P31645); assay: Radioligand binding
# 5-HT transporter, sequence (P31645 whole entry): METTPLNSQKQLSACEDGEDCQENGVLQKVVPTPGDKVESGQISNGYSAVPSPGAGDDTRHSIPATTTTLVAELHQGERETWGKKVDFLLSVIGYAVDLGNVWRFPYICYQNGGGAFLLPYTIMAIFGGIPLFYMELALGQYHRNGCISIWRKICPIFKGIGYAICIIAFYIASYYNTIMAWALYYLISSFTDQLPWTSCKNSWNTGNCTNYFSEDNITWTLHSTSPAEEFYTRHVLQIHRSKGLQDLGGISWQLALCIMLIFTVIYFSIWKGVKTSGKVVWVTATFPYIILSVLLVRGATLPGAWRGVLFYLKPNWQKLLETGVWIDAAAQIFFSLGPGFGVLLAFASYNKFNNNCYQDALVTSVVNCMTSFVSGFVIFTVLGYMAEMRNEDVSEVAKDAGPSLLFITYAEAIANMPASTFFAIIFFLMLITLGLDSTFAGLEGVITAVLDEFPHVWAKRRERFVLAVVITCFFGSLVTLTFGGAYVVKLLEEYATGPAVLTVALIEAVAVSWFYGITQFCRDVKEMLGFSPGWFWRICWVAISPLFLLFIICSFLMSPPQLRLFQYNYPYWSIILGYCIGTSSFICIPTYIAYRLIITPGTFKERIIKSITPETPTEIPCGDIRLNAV
# Experimental: as §1
# mice [4] = assay: Subcutaneous pentylenetetrazole seizure test (ScPTZ, SCMET); format: in vivo; conditions: ip, […]
# Experimental: The assays were carried out within the Epilepsy Therapy Screening Program (ETSP, previously known as the Anticonvulsant Screening Program, ASP), Epilepsy Branch, National Institute of Neurological and Communicative Disorders and Stroke, National Institutes of Health in Rockville, MD, USA [23].
# α2 (non-selective) = assay: Radioligand binding; parameters: species or system rat
# Experimental: as §1
# [5] = molecular target: Ca2+ channel (L, verapamil site) (phenylalkylamine); assay: Radioligand binding; parameters: species or system rat
# Experimental: as §1
# Sigma (non-selective) = assay: Radioligand binding; parameters: species or system rat
# Experimental: as §1
# mice [6] = assay: Corneal kindling; format: in vivo; conditions: ip
# [7] = 0.1 μM, read-out: % of control specific binding
# [8] = 1 μM, read-out: % of control specific binding
# [9] = 3 μM, read-out: % of control specific binding
# [10] = 10 μM, read-out: % of control specific binding
# [11] = 100 μM, read-out: % of control specific binding
smiles,measurement,setting,value
"CCC(CO)NCCOc1c(C)cccc1Cl (centres unmarked) [KM-408, R,S-2-((2-(2-chloro-6-methylphenoxy)ethyl)amino)butan-1-ol hydrochloride]",influence on seizure threshold,mice [1],the effect was not observed
same,influence on seizure threshold,mice [1]; listed as KM408,effect was not shown
same,IC50,Na+ channel (site 2),15 µM
same,Ki,Na+ channel (site 2),14 µM
same,% of control specific binding,Na+ channel (site 2); 0.3 μM,101.1%
same,% of control specific binding,Na+ channel (site 2); 3 μM,92.0%
same,% of control specific binding,Na+ channel (site 2); 30 μM,40.3%
same,Test Result (neuroprotection),[2]; listed as 367061,No neurop rotection observed
same,Area under the curve (I phase),mice [3]; 13.25 mg/kg,113.7 ± 65.6
same,Area under the curve (II phase),mice [3]; 13.25 mg/kg,489.7 ± 211.3
same,IC50,M4,24 µM
same,Ki,M4,15 µM
same,remaining activity at 0.1 µM,M4; [7],98%
same,remaining activity at 1 µM,M4; [8],92%
same,remaining activity at 3 µM,M4; [9],82.7%
same,remaining activity at 10 µM,M4; [10],67%
same,remaining activity at 100 µM,M4; [11],23.8%
same,IC50,5-HT2C,77 µM
same,Ki,5-HT2C,26 µM
same,remaining activity at 0.1 µM,5-HT2C; [7],95.6%
same,remaining activity at 1 µM,5-HT2C; [8],87.1%
same,remaining activity at 3 µM,5-HT2C; [9],95.2%
same,remaining activity at 10 µM,5-HT2C; [10],82.4%
same,remaining activity at 100 µM,5-HT2C; [11],40.6%
same,IC50,D2S,100 µM
same,Ki,D2S,34 µM
same,remaining activity at 0.1 µM,D2S; [7],96.2%
same,remaining activity at 1 µM,D2S; [8],96.5%
same,remaining activity at 3 µM,D2S; [9],92.8%
same,remaining activity at 10 µM,D2S; [10],86%
same,remaining activity at 100 µM,D2S; [11],49.1%
same,IC50,5-HT transporter,3.6 µM
same,Ki,5-HT transporter,1.7 µM
same,remaining activity at 0.003 µM,"5-HT transporter; 0.003 μM, read-out: % of control specific binding",105%
same,remaining activity at 0.03 µM,"5-HT transporter; 0.03 μM, read-out: % of control specific binding",112%
same,remaining activity at 0.3 µM,"5-HT transporter; 0.3 μM, read-out: % of control specific binding",92.8%
same,remaining activity at 3 µM,5-HT transporter; [9],61%
same,remaining activity at 30 µM,"5-HT transporter; 30 μM, read-out: % of control specific binding",11.5%
same,ED50,"mice [4]; Mus musculus, read-out: SCMET ED50",> 100 mg/kg
same,IC50,α2 (non-selective),24 µM
same,Ki,α2 (non-selective),10 µM
same,% of control specific binding,α2 (non-selective); 0.01 μM,101.3%
same,% of control specific binding,α2 (non-selective); 0.1 μM,111.6%
same,% of control specific binding,α2 (non-selective); 1 μM,101.2%
same,% of control specific binding,α2 (non-selective); 10 μM,73.4%
same,% of control specific binding,α2 (non-selective); 100 μM,23.5%
same,IC50,[5],43 µM
same,Ki,[5],22 µM
same,% of control specific binding,[5]; 0.1 μM,101.9%
same,% of control specific binding,[5]; 1 μM,104.4%
same,% of control specific binding,[5]; 3 μM,93.6%
same,% of control specific binding,[5]; 10 μM,80.9%
same,% of control specific binding,[5]; 100 μM,34.8%
same,IC50,Sigma (non-selective),0.089 µM
same,Ki,Sigma (non-selective),0.072 µM
same,% of control specific binding,Sigma (non-selective); 0.001 μM,104.0%
same,% of control specific binding,Sigma (non-selective); 0.01 μM,97.1%
same,% of control specific binding,Sigma (non-selective); 0.1 μM,50.0%
same,% of control specific binding,Sigma (non-selective); 1 μM,13.1%
same,% of control specific binding,Sigma (non-selective); 10 μM,1.4%
same,Corneal kindling avg. seizure score by Racine (0–5),"mice [6]; at 30 mg/kg, […]",2.5
"CCC(CO)NCCOc1c(C)cccc1Cl (centres unmarked) [Compound 4, R,S-2-((2-(2-chloro-6-methylphenoxy)ethyl)amino)butan-1-ol]",influence on seizure threshold,mice [1],lowered the seizure threshold; also recorded: showed activity in lowering the seizure threshold
same,% of control specific binding,Na+ channel (site 2); 100 μM,11.6%
same,Test Result (neuroprotection),[2],No Neuroprotection
same,Area under the curve (I phase),mice [3]; 21 mg/kg,124.8 ± 32.7
same,Area under the curve (II phase),mice [3]; 21 mg/kg,569.2 ± 405.0
same,"Area under the curve, % of control (I phase)",mice [3]; 21 mg/kg,64.0%
same,"Area under the curve, % of control (II phase)",mice [3]; 21 mg/kg,72.7%
same,Area under the curve (I phase),"mice [3]; 21 mg/kg, listed as 348014",124.8
same,Area under the curve (II phase),"mice [3]; 21 mg/kg, listed as 348014",569.2
same,% of control specific binding,M4; 100 μM,30.5%
same,% of control specific binding,5-HT2C; 100 μM,44.6%
same,% of control specific binding,D2S; 100 μM,33.3%
same,% of control specific binding,5-HT transporter; 100 μM,5.1%
same,SCMET ED50,mice [4]; mice,> 64 mg/kg
same,% of control specific binding,α2 (non-selective); 100 μM,27.7%
same,% of control specific binding,[5]; 100 μM,38.5%
same,% of control specific binding,Sigma (non-selective); 100 μM,-2.7%
same,Corneal kindling TPE,mice [6],0.25 h
same,Corneal kindling ED50,mice [6]; […],19.51 (11.86–28.41) mg/kg
